In brackets after ≈: the same amount, converted by molar mass. Read-outs that look alike come from different tables or passages of the source.
Columns and labels:
[1] = Metabolic (microsomal) stability assay, human liver microsomes (HLM); type: in vitro ADME; conditions: 1 μM test compound, predicted clearance as percent of liver blood flow
[2] = system: Ba/F3 cells KRAS G12D; assay: Ba/F3 proliferation assay (KRAS G12D); type: cell-based; conditions: Mus musculus, BaF3, 72 h, AlamarBlue viability
Outline: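 Ba/F3 cells retrovirally transduced with KRAS G12 mutant, puromycin-selected, grown IL-3-independent; seeded in RPMI-1640 + 10% FCS without IL-3. Logarithmic compound dose series in duplicate, 72 h at 37° C., AlamarBlue fluorescence as % of DMSO control; IC50 from four-parameter non-linear regression.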

[3] = Solubility measurement (DMSO solution precipitation method); type: physicochemical; conditions: aqueous buffer, kinetic from dmso stock
Outline: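 A 10 mM DMSO stock was diluted to 250 μM final in McIlvaine buffer at pH 4.5 or 6.8, then shaken 24 h at ambient temperature. After filtering off precipitate, filtrate concentration was quantified by LC-UV against a fully dissolved reference in acetonitrile/water (1:1).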

[4] = system: SK-CO-1 cells; assay: SK-CO-1 CTG proliferation assay (120 h) (CRC, G12V); type: cell-based; conditions: Homo sapiens
Outline: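 Cells seeded overnight in EMEM with 10% FCS, then given logarithmic dose series in duplicate for 120 h at 37° C. CellTiter-Glo luminescence expressed as percent of DMSO controls, with a T0 read at dosing; IC50 by four-parameter non-linear regression.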

[5] = McIlvaine buffer pH 4.5, 24 h, read-out: solubility pH 4.5
[6] = McIlvaine buffer pH 6.8, 24 h, read-out: solubility pH 6.8

Row | Structure (SMILES) | HLM QH [1] [%] | IC50 [2] [nM] | solubility at 24 h [3, 5] [µg/mL] | solubility at 24 h [3, 6] [µg/mL] | IC50 [4] [nM]
1 | CCn1c(=O)n([C@@H]2CCCOC2)c2nc(-c3onc4c3CCC[C@@]43CCCc4sc(N)c(C#N)c43)nc(OCC34CCCN3CCC4)c21 [I-34] | <24 | 3020 | > 158 | > 148 | 273
2 | CCn1c(=O)n([C@@H]2CCCOC2)c2nc(-c3onc4c3CCC[C@@]43CCCc4sc(N)c(C#N)c43)nc(O[C@@H](C)[C@@H]3CCCN3C)c21 [I-30] | 25 | 29 | > 154 | 88 (≈ 134 µM) | 11
3 | C[C@H](Oc1nc(-c2onc3c2CCC[C@@]32CCCc3sc(N)c(C#N)c32)nc2c1n(C)c(=O)n2[C@@H]1CCOC1)[C@@H]1CC[C@H](C)N1C [I-26] | 42 | 5 | > 158 | 127 (≈ 197 µM) | 10
4 | C[C@H](Oc1nc(-c2onc3c2CCC[C@@]32CCCc3sc(N)c(C#N)c32)nc2c1n(C)c(=O)n2[C@@]12COC[C@@H]1C2)[C@@H]1CC[C@H](C)N1C [I-45] | 41 | 6 | > 135 | 85 (≈ 129 µM) | 4
5 | COCCn1c(=O)n(C)c2c(O[C@@H](C)[C@@H]3CCCN3C)nc(-c3onc4c3CCC[C@@]43CCCc4sc(N)c(C#N)c43)nc21 [I-7] | <24 | 204 | > 150 | > 147 | 190
6 | C[C@H](Oc1nc(-c2noc3c2CCC[C@@]32CCCc3sc(N)c(C#N)c32)nc2c1CNC[C@]21CCOC1)[C@@H]1CCCN1C [II-15] | 63 | 8 | > 147 | > 148 | 5
7 | CO[C@@H]1C[C@@H]([C@H](C)Oc2nc(-c3noc4c3CCC[C@@]43CCCc4sc(N)c(C#N)c43)nc3c2CN(C2COC2)C[C@]32CCOC2)N(C)C1 [II-14] | 59 | 11 | > 149 | 114 (≈ 166 µM) | 6

From patent US20250019385A1, “SPIROCYCLIC ANNULATED 2-AMINO-3-CYANO THIOPHENES AND DERIVATIVES FOR THE TREATMENT OF CANCER” (Boehringer Ingelheim International GmbH, priority 2023, published 2025)
